{
  "source": "paper PMC10305119",
  "about": "“Analogs of 6-Bromohypaphorine with Increased Agonist Potency for α7 Nicotinic Receptor as Anti-Inflammatory Analgesic Agents” (Marine Drugs, 2023)",
  "key": {"[1]": {"target": "T1, human α3-containing nAChRs (Homo sapiens, UniProt P32297)", "T1 construct": "endogenous in cells; host or cells: human neuroblastoma SH-SY5Y", "T1 sequence (P32297 32-505)": "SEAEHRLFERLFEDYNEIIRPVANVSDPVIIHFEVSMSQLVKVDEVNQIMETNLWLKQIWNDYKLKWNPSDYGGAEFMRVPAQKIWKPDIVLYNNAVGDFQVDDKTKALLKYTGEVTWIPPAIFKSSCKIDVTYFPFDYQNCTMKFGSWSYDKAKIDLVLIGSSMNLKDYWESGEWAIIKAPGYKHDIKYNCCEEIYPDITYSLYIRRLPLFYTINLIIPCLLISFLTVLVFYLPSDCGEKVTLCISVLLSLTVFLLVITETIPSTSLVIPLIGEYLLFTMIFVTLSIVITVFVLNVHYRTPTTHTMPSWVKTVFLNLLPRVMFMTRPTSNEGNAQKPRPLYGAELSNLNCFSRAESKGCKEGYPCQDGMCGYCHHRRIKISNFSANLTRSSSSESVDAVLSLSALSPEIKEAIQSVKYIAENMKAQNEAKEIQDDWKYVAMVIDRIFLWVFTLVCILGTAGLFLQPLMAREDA", "assay": "Calcium imaging of α3-containing nAChRs in SH-SY5Y cells (nicotine-induced calcium rise)", "assay_type": "cell-based", "experimental": "Two of the studied compounds with high and medium agonist potency for α7 nAChR (6CF and 6ID, Table 1) were tested for activity toward α3* nAChR by calcium imaging.\nNormalized data are presented as mean ± standard error. n = 6–7."}, "[2]": {"target": "T2, α9α10 nAChR (Homo sapiens, UniProt Q9GZZ6+Q9UGM1)", "T2 construct": "expressed in transfected cells; host or cells: Xenopus oocytes injected with in vitro transcribed RNA", "T2 sequence (Q9UGM1 26-479 limits assumed)": "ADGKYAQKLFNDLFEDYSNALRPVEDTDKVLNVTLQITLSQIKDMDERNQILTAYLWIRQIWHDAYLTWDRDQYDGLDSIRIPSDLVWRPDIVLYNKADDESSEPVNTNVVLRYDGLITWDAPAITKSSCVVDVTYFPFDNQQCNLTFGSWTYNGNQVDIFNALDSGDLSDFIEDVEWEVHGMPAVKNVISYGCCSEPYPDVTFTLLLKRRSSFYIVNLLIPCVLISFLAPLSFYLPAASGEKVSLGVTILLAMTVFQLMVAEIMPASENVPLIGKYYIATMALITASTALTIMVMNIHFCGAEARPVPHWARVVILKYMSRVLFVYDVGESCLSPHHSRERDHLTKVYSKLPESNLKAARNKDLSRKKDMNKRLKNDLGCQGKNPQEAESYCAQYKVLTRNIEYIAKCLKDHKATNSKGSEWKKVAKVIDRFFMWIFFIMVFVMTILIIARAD", "T2 sequence (Q9GZZ6 25-450)": "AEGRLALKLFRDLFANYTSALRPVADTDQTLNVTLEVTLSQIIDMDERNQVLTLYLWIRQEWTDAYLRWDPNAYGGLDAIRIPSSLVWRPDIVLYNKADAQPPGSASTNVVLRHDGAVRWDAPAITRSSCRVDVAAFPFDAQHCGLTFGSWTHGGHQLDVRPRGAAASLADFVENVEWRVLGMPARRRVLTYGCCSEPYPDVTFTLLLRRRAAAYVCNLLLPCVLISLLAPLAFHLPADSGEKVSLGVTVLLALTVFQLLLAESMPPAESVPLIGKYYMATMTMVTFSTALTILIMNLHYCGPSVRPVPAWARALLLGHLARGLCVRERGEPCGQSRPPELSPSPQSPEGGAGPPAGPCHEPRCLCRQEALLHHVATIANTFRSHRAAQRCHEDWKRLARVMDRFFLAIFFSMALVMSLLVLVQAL", "assay": "Two-electrode voltage-clamp on α9/α10 nAChR in Xenopus oocytes", "assay_type": "cell-based", "experimental": "Recordings were performed using Axopatch 200 amplifier in two-electrode voltage-clamp setup (Molecular Devices, LLC, San Jose, CA, USA) on oocytes removed from mature Xenopus frogs. Two to three days before taking recordings, oocytes were injected with in vitro transcribed RNA, coding α9 and α10 nAChR and kept at 18 °C in ND96 electrophysiology buffer solution (5 mM HEPES/NaOH at pH 7.6 and 18 °C, 96 mM NaCl, 2 mM KCl, 1.8 mM CaCl2, 2 mM MgCl2)."}, "[3]": {"system": "MIA-induced arthritis", "assay": "Monoiodoacetate-induced arthritis model, functional tests", "assay_type": "in vivo, Wistar female rats", "experimental": "By the 8th day of the experiment, the maximum inflammation of the knee joint was noted. […] On the 8th and 16th days, the effect of the compound was assessed using a set of functional tests: weight distribution between the healthy and inflamed limbs immediately after the first 6ND injection (Figure 8a) and after eight days of 6ND administration (Figure 8b), muscle strength grasping the hind limbs after the first 6ND injection (Figure 8c) and after eight days of 6ND administration (Figure 8d), mechanical allodynia after the start of 6ND administration and after eight days of 6ND administration (Figure 8e,f, respectively), thermal hypersensitivity 2 h after administration of 6ND ([…]), and measuring the diameter of the knee joint (Figure 8h).\n(§1) Four groups of animals were formed: control and three groups with modelling of inflammation by introducing monoiodoacetate (MIA). Three groups of animals were injected with 3 mg MIA in 50 μL of 0.9% sodium chloride through the patellar ligament into the intra-articular space of the right knee using a 29-G needle. Control rats received an equivalent volume of 0.9% sodium chloride.\nAssessments of inflammation in vivo and functional tests were conducted on days 8 and 16 after arthritis model induction. Thermal and mechanical hypersensitivity and pain-induced articular disability were tested in this model. Body weight gain and paw oedema were also monitored during the experiment.\nThe inflamed paw withdrawal or licking latencies to thermal stimulation were measured on a hot plate device (Hot Plate Analgesia Meter, Columbus Instruments) with a set temperature of 53 ± 0.1 °C and a cut-off time of 60 s.\nMechanical hypersensitivity was measured by the electronic von Frey instrument (model BIO-EVF4; Bioseb, Vitrolles, France) used to vertically stimulate the center of the rat hind paw with increasing intensity. Measurements were repeated 3 times and the final value was obtained by averaging the 3 measurements.\nBehavioral assessment of movement-caused pain was carried out in a hind limb grip strength test using a Grip Strength Meter (Columbus Instruments, Columbus, OH, USA) consisting of a wire mesh frame connected to the gauge. Rats were restrained and allowed to grasp the wire mesh frame with their hind paws and then were pulled backwards until the grip released. Three measurements were conducted with an interval of 30 s for the averaged grip strength calculation."}, "[4]": {"system": "MIA-induced arthritis", "assay": "Monoiodoacetate-induced arthritis model, histological study of the knee joint", "assay_type": "in vivo, female rats", "conditions": "15th day, scale 0-5, n = 4", "excerpt": "After the experiment termination and euthanasia of the experimental animals, biomaterials were taken for histological examination. Soft tissues around the right knee joint were excised as much as possible. Femur, tibia, and fibula were cut across in the middle of the diaphysis closer to the corresponding articular surfaces. The joint was fixed in a 10% solution of neutral formalin for seven days, washed in running water and then decalcified in Trilon B for 7–14 days. After satisfactory decalcification of the bone and cartilage tissue, the joint was cut in the sagittal plane. The diaphysis of the tubular bones was shortened to the border of 2–3 mm from the metaepiphyseal cartilage. In this form, the biomaterial was repeatedly washed in running water, dehydrated in alcohols of ascending concentration, and embedded in paraffin. Paraffin sections 5–7 μm thick were stained with hematoxylin and eosin and examined using conventional light microscopy. During histological analysis, the following morphological signs were assessed: inflammatory infiltration of the synovial membrane (synovitis), synovial hyperplasia, destructive changes in the articular cartilage, and destructive changes in bone tissue (if any). The following scale was used to assess the severity of a particular morphological trait: 0 points—within normal limits, 1—minimal severity, 2—weak, 3—medium (moderate), 4—strong, 5—very strong.\nas §1"}, "[5]": {"system": "myocardial infarction model", "parameters": "method as in PMID 35538277", "conditions": "cited from earlier work"}},
  "note": "“Also recorded” adds a separate entry of the source.",
  "data": [
    {"smiles": "COC(=O)[C@@H](Cc1c[nH]c2cc(I)ccc12)[N+](C)(C)C", "note": "[Compound 1, (D)-6-iodohypaphorine methyl ester]", "values": [
      {"measurement": "agonism on α3* nAChR (calcium response)", "setting": "[1]; compound alone, listed as 6ID", "value": "does not evoke noticeable calcium response in range of 3–30 μM; also recorded: Neither 6ID, which was most active agonist of α7 nAChR, nor 6CF showed detectable agonism on α3* nAChR at concentrations up to 30 µM"},
      {"measurement": "IC50", "setting": "[1]; inhibition of nicotine (100 μM)-induced calcium rise", "value": "4.4 ± 1", "unit": "µM"},
      {"measurement": "activity toward α9α10 nAChR", "setting": "[2]", "value": "almost inactive"}
    ]},
    {"smiles": "COC(=O)C(Cc1c[nH]c2cc([N+](=O)[O-])ccc12)[N+](C)(C)C", "note": "(stereo not shown) [Compound 5, methyl ester of 6-nitrohypaphorine]", "values": [
      {"measurement": "anti-oedemic and analgesic effects in arthritis rat model", "setting": "[3]; i.p. doses 0.05–0.26 mg/kg", "value": "demonstrated anti-oedemic and analgesic effects"},
      {"measurement": "grip strength of affected limb", "setting": "[3]; rats, 0.05 and 0.26 mg/kg, after eight days of administration, listed as 6ND", "value": "significantly improved grip strength in MIA-induced arthritis in rats at a dose of 0.05 but not 0.26 mg/kg; also recorded: significantly improved grip strength of affected limb after eight days"},
      {"measurement": "body weight distribution between healthy and affected limbs", "setting": "[3]; rats, 0.05 and 0.26 mg/kg, days 8 and 16, listed as 6ND", "value": "No significant influence of 6ND on recovery was detected; also recorded: did not influence body weight distribution"},
      {"measurement": "thermal hyperalgesia in hot plate test", "setting": "[3]; rats, 2 h after administration, listed as 6ND", "value": "No significant effects of 6ND in hot plate test; also recorded: did not influence thermal hyperalgesia"},
      {"measurement": "mechanical allodynia", "setting": "[3]; rats, 16 days after MIA, eight days of administration, listed as 6ND", "value": "dose-dependent improvement in allodynia test 16 days after MIA injection; also recorded: analgesic (anti-allodynic) effect"},
      {"measurement": "oedema of the MIA-injected knee joint (diameter)", "setting": "[3]; rats, listed as 6ND", "value": "Significant effect in dynamics of oedema was detected in rats treated with 0.05 mg/kg 6ND; also recorded: anti-oedemic effect on the MIA-injected joint"},
      {"measurement": "Destructive Changes in the Distal Epiphyseal Cartilage of the Femur, Max score", "setting": "[4]; 0.05 mg/kg intramuscular", "value": 3.0},
      {"measurement": "Destructive Changes in the Distal Epiphyseal Cartilage of the Femur, Me (average) score", "setting": "[4]; 0.05 mg/kg intramuscular", "value": 3.0},
      {"measurement": "Destructive Changes in the Distal Epiphyseal Cartilage of the Femur, Min score", "setting": "[4]; 0.05 mg/kg intramuscular", "value": 3.0},
      {"measurement": "Destructive Changes in the Proximal Epiphyseal Cartilage of the Tibia, Max score", "setting": "[4]; 0.05 mg/kg intramuscular", "value": 4.0},
      {"measurement": "Destructive Changes in the Proximal Epiphyseal Cartilage of the Tibia, Me (average) score", "setting": "[4]; 0.05 mg/kg intramuscular", "value": 3.5},
      {"measurement": "Destructive Changes in the Proximal Epiphyseal Cartilage of the Tibia, Min score", "setting": "[4]; 0.05 mg/kg intramuscular", "value": 3.0},
      {"measurement": "Inflammatory Infiltration of the Synovium, Max score", "setting": "[4]; 0.05 mg/kg intramuscular", "value": 4.0},
      {"measurement": "Inflammatory Infiltration of the Synovium, Me (average) score", "setting": "[4]; 0.05 mg/kg intramuscular", "value": 3.75},
      {"measurement": "Inflammatory Infiltration of the Synovium, Min score", "setting": "[4]; 0.05 mg/kg intramuscular", "value": 3.0},
      {"measurement": "Synovial Hyperplasia, Max score", "setting": "[4]; 0.05 mg/kg intramuscular", "value": 3.0},
      {"measurement": "Synovial Hyperplasia, Min score", "setting": "[4]; 0.05 mg/kg intramuscular", "value": 2.0},
      {"measurement": "Synovial Hyperplasia, Me (average) score", "setting": "[4]; 0.05 mg/kg intramuscular, listed as 6ND", "value": 2.25},
      {"measurement": "Destructive Changes in the Distal Epiphyseal Cartilage of the Femur, Max score", "setting": "[4]; 0.26 mg/kg intramuscular", "value": 3.0},
      {"measurement": "Destructive Changes in the Distal Epiphyseal Cartilage of the Femur, Me (average) score", "setting": "[4]; 0.26 mg/kg intramuscular", "value": 3.0},
      {"measurement": "Destructive Changes in the Distal Epiphyseal Cartilage of the Femur, Min score", "setting": "[4]; 0.26 mg/kg intramuscular", "value": 3.0},
      {"measurement": "Destructive Changes in the Proximal Epiphyseal Cartilage of the Tibia, Max score", "setting": "[4]; 0.26 mg/kg intramuscular", "value": 4.0},
      {"measurement": "Destructive Changes in the Proximal Epiphyseal Cartilage of the Tibia, Me (average) score", "setting": "[4]; 0.26 mg/kg intramuscular", "value": 3.5},
      {"measurement": "Destructive Changes in the Proximal Epiphyseal Cartilage of the Tibia, Min score", "setting": "[4]; 0.26 mg/kg intramuscular", "value": 3.0},
      {"measurement": "Inflammatory Infiltration of the Synovium, Max score", "setting": "[4]; 0.26 mg/kg intramuscular", "value": 3.0},
      {"measurement": "Inflammatory Infiltration of the Synovium, Me (average) score", "setting": "[4]; 0.26 mg/kg intramuscular", "value": 2.5},
      {"measurement": "Inflammatory Infiltration of the Synovium, Min score", "setting": "[4]; 0.26 mg/kg intramuscular", "value": 2.0},
      {"measurement": "Synovial Hyperplasia, Max score", "setting": "[4]; 0.26 mg/kg intramuscular", "value": 2.0},
      {"measurement": "Synovial Hyperplasia, Me (average) score", "setting": "[4]; 0.26 mg/kg intramuscular", "value": 1.5},
      {"measurement": "Synovial Hyperplasia, Min score", "setting": "[4]; 0.26 mg/kg intramuscular", "value": 1.0},
      {"measurement": "effect in myocardial infarction model", "setting": "[5]", "value": "significant positive effect"}
    ]}
  ]
}
